Measured values published in publication PMC6934184, “Selective DNA-PKcs inhibition extends the therapeutic index of localized radiotherapy and chemotherapy” (The Journal of Clinical Investigation, 2019).

Target: T1, JAK3 (Homo sapiens, UniProt P52333)
T1 construct: purchased Thermo Fisher Scientific (Life Technologies) SelectScreen
Assay: SelectScreen Z'LYTE
Format: biochemical
How it was run: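 NU5455 was profiled across the SelectScreen Broad panel of kinase activity and binding assays. Z'LYTE reactions such as CSF1R ran at apparent Km ATP, while the Adapta CAMK1 assay used ATP listed as 10. Values are given as percent.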

T1 sequence (P52333 whole entry): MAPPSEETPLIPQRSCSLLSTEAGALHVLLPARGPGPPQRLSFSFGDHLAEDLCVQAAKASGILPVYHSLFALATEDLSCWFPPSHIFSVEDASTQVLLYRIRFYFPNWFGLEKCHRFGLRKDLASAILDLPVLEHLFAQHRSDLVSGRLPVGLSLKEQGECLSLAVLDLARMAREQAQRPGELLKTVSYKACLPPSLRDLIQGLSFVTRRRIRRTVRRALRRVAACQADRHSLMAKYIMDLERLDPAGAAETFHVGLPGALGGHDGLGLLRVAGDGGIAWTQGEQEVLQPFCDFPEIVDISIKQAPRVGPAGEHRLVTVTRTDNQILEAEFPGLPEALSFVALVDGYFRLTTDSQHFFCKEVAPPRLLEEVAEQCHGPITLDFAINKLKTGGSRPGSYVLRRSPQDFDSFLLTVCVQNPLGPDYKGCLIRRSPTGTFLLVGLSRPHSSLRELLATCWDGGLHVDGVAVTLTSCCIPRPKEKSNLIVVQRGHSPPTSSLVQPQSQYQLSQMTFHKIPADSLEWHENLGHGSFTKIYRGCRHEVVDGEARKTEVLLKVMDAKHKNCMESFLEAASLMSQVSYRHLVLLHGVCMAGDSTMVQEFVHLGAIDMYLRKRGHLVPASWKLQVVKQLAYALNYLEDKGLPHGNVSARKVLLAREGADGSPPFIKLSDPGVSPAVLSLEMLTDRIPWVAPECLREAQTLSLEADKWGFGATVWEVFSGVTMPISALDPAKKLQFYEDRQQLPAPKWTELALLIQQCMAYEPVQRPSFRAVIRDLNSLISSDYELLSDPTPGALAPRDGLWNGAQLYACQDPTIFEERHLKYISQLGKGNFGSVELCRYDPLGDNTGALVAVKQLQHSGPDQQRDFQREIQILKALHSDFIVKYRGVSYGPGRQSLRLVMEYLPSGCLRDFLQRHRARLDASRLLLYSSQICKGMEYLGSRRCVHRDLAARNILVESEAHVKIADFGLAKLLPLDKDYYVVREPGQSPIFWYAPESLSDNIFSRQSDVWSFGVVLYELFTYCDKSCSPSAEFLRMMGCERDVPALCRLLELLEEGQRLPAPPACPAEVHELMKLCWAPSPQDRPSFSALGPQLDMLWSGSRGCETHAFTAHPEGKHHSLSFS

CN(C(=O)CN1CCOCC1)c1ccc2sc3c(-c4cccc5c(=O)cc(N6CC7CCC(C6)O7)oc45)cccc3c2c1 [NU5455]
inhibition at 1 µM: 6%
